# In the supplement of paper PMC9780213:
# Key:
# Settings in all cases: treatment time: 24 h
# U2OS-mOrange2-Peroxisome = test: cell count relative to DMSO control (panel B, lysosome/peroxisome/lipid stain) (fraction of control); higher = more cells (less toxicity)
# Experimental: (§1)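 U2OS-derived cells in 384-well plates were treated for 24 h with a 7-point 2-fold dilution series (top dose 20 µM for most compounds; final max DMSO 1%), then fixed, stained in four marker panels and imaged on a Cellomics ArrayScan. Cell count per treatment (three replicate plates merged) is given as a fraction of DMSO control. Panel A used parental U2OS, panel B U2OS-mOrange2-Peroxisome, panel C1 U2OS-LMNB1-TUBA1B-ACTB (DRAQ5 nuclei).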
# U2OS-LMNB1-TUBA1B-ACTB = test: cell count relative to DMSO control (panel C1, DRAQ5/ER stain) (fraction of control); higher = more cells (less toxicity)
# Experimental: as §1
# U2OS = test: cell count relative to DMSO control (panel A, nuclei/RNA/PMG/mitochondria stain) (fraction of control); higher = more cells (less toxicity)
# Experimental: as §1
SMILES,cell count (U2OS-mOrange2-Peroxisome; 0.3125 µM),cell count (U2OS-mOrange2-Peroxisome; 0.625 µM),cell count (U2OS-mOrange2-Peroxisome; 1.25 µM),cell count (U2OS-mOrange2-Peroxisome; 2.5 µM),cell count (U2OS-mOrange2-Peroxisome; 5 µM),cell count (U2OS-mOrange2-Peroxisome; 10 µM),cell count (U2OS-mOrange2-Peroxisome; 20 µM),cell count (U2OS-LMNB1-TUBA1B-ACTB; 0.3125 µM),cell count (U2OS-LMNB1-TUBA1B-ACTB; 0.625 µM),cell count (U2OS-LMNB1-TUBA1B-ACTB; 1.25 µM),cell count (U2OS-LMNB1-TUBA1B-ACTB; 2.5 µM),cell count (U2OS-LMNB1-TUBA1B-ACTB; 5 µM),cell count (U2OS-LMNB1-TUBA1B-ACTB; 10 µM),cell count (U2OS-LMNB1-TUBA1B-ACTB; 20 µM),cell count (U2OS; 0.3125 µM),cell count (U2OS; 0.625 µM),cell count (U2OS; 1.25 µM),cell count (U2OS; 2.5 µM),cell count (U2OS; 5 µM),cell count (U2OS; 10 µM),cell count (U2OS; 20 µM),cell count (U2OS-mOrange2-Peroxisome; 0.07812 µM),cell count (U2OS-mOrange2-Peroxisome; 0.15625 µM),cell count (U2OS-LMNB1-TUBA1B-ACTB; 0.07812 µM),cell count (U2OS-LMNB1-TUBA1B-ACTB; 0.15625 µM),cell count (U2OS; 0.07812 µM),cell count (U2OS; 0.15625 µM)
CO[C@@]12[C@H](COC(N)=O)C3=C(C(=O)C(C)=C(N)C3=O)N1C[C@@H]1N[C@@H]12 [mitomycin-c],0.696,0.65,0.706,0.72,0.6,0.363,0.279,0.882,0.789,0.864,0.812,0.746,0.672,0.38,0.677,0.708,0.683,0.639,0.59,0.531,0.278,,,,,,
O=C(O)CCCCC(CCSCc1ccccc1)SCc1ccccc1 (stereo unspecified) [CPI-613],0.907,1.1,0.897,1.1,0.851,0.902,0.849,1.36,1.4,1.03,1.06,1.15,1.08,1.14,1.01,0.993,0.975,1.04,1.14,1.11,1.05,,,,,,
COc1cc(-n2c(=S)[nH]c3ccccc3c2=O)c(Cl)cc1Cl [mdivi-1],0.787,0.837,0.803,1.03,1.03,0.618,0.921,1.02,1.01,1.08,1.03,1.02,0.74,1.09,1.02,0.927,1.04,1.01,1,0.643,1.04,,,,,,
CN(Cc1cnc2nc(N)nc(N)c2n1)c1ccc(C(=O)N[C@@H](CCC(=O)O)C(=O)O)cc1 [methotrexate],0.663,0.807,0.808,0.78,0.748,,,0.838,0.851,0.728,0.663,0.497,,,0.705,0.696,0.691,0.689,0.561,,,0.761,0.757,0.922,0.8,0.782,0.699
COc1ccc(C2CNC(=O)C2)cc1OC1CCCC1 (stereo unspecified) [rolipram],0.884,0.894,1,0.96,1.13,0.726,1,0.979,1.14,0.963,1.03,1.01,1.02,1.01,1.04,1.07,0.964,0.96,0.915,1,0.959,,,,,,
CO[C@H]1C[C@@H]2CC[C@@H](C)[C@@](O)(O2)C(=O)C(=O)N2CCCC[C@H]2C(=O)O[C@H]([C@H](C)C[C@@H]2CC[C@@H](OP(C)(C)=O)[C@H](OC)C2)CC(=O)[C@H](C)/C=C(\C)[C@@H](O)[C@@H](OC)C(=O)[C@H](C)C[C@H](C)/C=C/C=C/C=C/1C [deforolimus],0.595,0.61,0.485,0.385,0.364,,,0.625,0.644,0.471,0.438,0.373,,,0.655,0.557,0.504,0.582,0.382,,,0.782,0.674,0.878,0.753,0.964,0.74
O=C(CCCN1CCC(O)(c2ccc(Cl)cc2)CC1)c1ccc(F)cc1 [haloperidol],1.19,1.13,1.11,0.88,1.29,1.16,1.32,1.03,1.05,1.03,0.979,1.05,1.11,1.05,1.02,0.985,0.893,0.939,0.979,1,0.956,,,,,,
CC(=O)N[C@H]1[C@@H](O[C@@H]2O[C@H](CC(O)[C@H]3O[C@@H](n4ccc(=O)[nH]c4=O)[C@H](O)[C@@H]3O)[C@H](O)[C@H](O)[C@H]2NC(=O)/C=C/CC(C)C)O[C@H](CO)[C@@H](N)[C@@H]1O (stereo partly specified) [tunicamycin],0.558,0.528,0.587,0.448,0.517,,,0.555,0.626,0.596,0.552,0.491,,,0.663,0.582,0.61,0.535,0.535,,,0.498,0.477,0.934,0.611,0.979,0.654
COc1cc([C@@H]2c3cc4c(cc3[C@H](O)[C@H]3COC(=O)[C@@H]23)OCO4)cc(OC)c1OC [picropodophyllin],0.803,1.07,0.951,1.42,1.24,1.15,,0.954,1.04,1.03,1.02,0.926,0.738,,0.88,0.899,0.978,0.94,0.929,0.701,,,0.97,,0.924,,0.97
CCCCCCCC(=O)N[C@H](CN1CCCC1)[C@H](O)c1ccc2c(c1)OCCO2 [eliglustat],1.25,0.795,0.804,0.767,0.889,0.945,1.12,1.08,1.13,1.13,1.08,1.09,1.07,1.02,0.927,0.977,0.988,1.01,1.1,1.01,0.973,,,,,,
CCOc1ccccc1-n1c(C(C)N2CCN(C(=O)COc3ccc(Cl)cc3)CC2)nc2ccccc2c1=O (stereo unspecified) [erastin],0.603,0.516,0.65,0.612,0.749,0.77,0.579,1.11,1.14,1.06,1,1.11,1.03,0.905,1.04,1.07,1.03,1.02,1.09,0.978,0.982,,,,,,
CC(=O)O[C@H]1C(=O)[C@@]2(C)[C@H]([C@H](OC(=O)c3ccccc3)[C@]3(O)C[C@H](OC(=O)[C@H](O)[C@@H](NC(=O)c4ccccc4)c4ccccc4)C(C)=C1C3(C)C)[C@]1(OC(C)=O)CO[C@@H]1C[C@@H]2O [paclitaxel],0.878,0.695,0.709,0.787,0.849,0.843,1.14,1.04,1.09,1.08,1.05,0.93,1.14,0.992,0.956,1.05,0.97,0.928,1.04,1,1,,,,,,
N.N.[Cl][Pt][Cl] [cisplatin],0.977,0.858,0.908,0.967,1.05,0.956,,1.06,1.12,1.03,0.956,0.991,1.01,,1.04,1.12,1.03,1.02,1.02,0.948,,,1.19,,1.01,,1.07
Cn1c(CCCC(=O)O)nc2cc(N(CCCl)CCCl)ccc21 [bendamustine],0.462,0.439,0.374,0.371,0.366,0.422,0.454,1.02,1.03,0.607,0.26,0.277,0.264,0.284,0.945,0.814,0.265,0.1,0.145,0.133,0.162,,,,,,
CC[C@H]1CN2CCc3cc(OC)c(OC)cc3[C@@H]2C[C@@H]1C[C@H]1NCCc2cc(OC)c(OC)cc21 [emetine],1.04,1.29,1.13,1.04,1.06,1.15,1.08,1.11,1.08,1,1.06,1.02,0.916,0.899,1.08,1.01,1.01,0.994,1.02,1.05,0.753,,,,,,
NCCCCC(N)C(=O)NC(CCCCN)C(=O)NC(Cc1c[nH]c2ccccc12)C(=O)NC(Cc1c[nH]c2ccccc12)C(=O)NC(CCCCN)C(=O)NC(CCCCN)C(=O)NC(Cc1c[nH]c2ccccc12)C(=O)NC(C(=O)NC(CCCCN)C(N)=O)C(c1ccccc1)c1ccccc1 (stereo unspecified) [LTX-315],0.785,0.756,0.817,0.766,0.885,0.508,0.0593,1.13,1.1,1.08,1.05,0.842,0.47,0.0329,1.04,0.967,1.09,0.948,0.657,0.15,0.0373,,,,,,
